Results as given in patent US6451802B1, “S-oxide lipid lowering compounds” (Janssen Pharmaceutica N.V., priority 1998, dated 2002).

Assays:
HepG2 cells = experiment: Quantification of the secretion of ApoB in HepG2 cells; type: cell-based; details: 24 hours of incubation, calculated by non-linear regression analysis
Protocol: HepG2 cells were cultured in 24-well plates in MEM Rega 3 containing 10% fetal calf serum. At 70% confluency, the medium was changed and the test compound or carrier (DMSO, 0.4% final concentration) was added. After 24 hours of incubation, the medium was transferred to Eppendorf tubes and cleared by centrifugation. A sheep antibody directed against either apoB was added to the supernatant and the mixture was kept at 8° C. for 24 hours. Then, rabbit anti-sheep antibody was added and the immune complex was allowed to precipitate for 24 hours at 8° C. The immunoprecipitate was pelleted by centrifugation for 25 min at 1320 g and washed twice with a buffer containing 40 mM Mops, 40 mM NaH2PO4, 100 mM NaF, 0.2 mM DTT, 5 mM EDTA, 5 mM EGTA, 1% Triton-X-100, 0.5% sodium deoxycholate (DOC), 0.1% SDS, 0.2 μM leupeptin and 0.2 μM PMSF. Radioactivity in the pellet was quantified by liquid scintillation counting. Resulting IC50 values are enumerated in Table C. 1.

Dog MTP = target: T1, Dog MTP (Canis lupus familiaris, UniProt A0A8I3S8Z7); experiment: MTP assay (triglyceride transfer from donor to acceptor vesicles); type: biochemical; details: drug concentration that corresponds with 50% of control values
T1 sequence (A0A8I3S8Z7 18-893): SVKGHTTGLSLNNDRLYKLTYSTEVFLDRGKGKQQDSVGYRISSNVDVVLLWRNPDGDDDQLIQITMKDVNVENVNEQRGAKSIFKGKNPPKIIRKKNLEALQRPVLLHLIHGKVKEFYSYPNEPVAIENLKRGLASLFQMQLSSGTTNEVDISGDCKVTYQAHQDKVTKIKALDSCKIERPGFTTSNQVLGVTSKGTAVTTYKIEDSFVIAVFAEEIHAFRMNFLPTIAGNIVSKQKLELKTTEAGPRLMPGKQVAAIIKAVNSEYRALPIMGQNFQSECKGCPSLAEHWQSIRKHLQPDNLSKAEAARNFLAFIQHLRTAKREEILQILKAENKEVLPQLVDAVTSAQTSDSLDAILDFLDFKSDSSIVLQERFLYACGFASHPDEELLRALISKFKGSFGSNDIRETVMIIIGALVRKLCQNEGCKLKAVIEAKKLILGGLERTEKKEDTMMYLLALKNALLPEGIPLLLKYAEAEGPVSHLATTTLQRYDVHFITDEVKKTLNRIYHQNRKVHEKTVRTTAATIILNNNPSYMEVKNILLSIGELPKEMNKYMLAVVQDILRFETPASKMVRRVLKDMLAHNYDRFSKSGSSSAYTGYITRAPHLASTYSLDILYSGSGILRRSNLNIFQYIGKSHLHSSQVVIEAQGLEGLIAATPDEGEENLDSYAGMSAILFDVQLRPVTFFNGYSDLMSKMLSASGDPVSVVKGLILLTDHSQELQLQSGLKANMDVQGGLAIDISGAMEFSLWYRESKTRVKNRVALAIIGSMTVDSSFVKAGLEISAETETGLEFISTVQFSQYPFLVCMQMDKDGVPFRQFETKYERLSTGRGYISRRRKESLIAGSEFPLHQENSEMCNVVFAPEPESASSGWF
Protocol: MTP activity was measured using an assay similar to one described by J. R. Wetterau and D. B. Zilversmit in Chemistry and Physics of Lipids, 38, 205-222 (1985). To prepare the donor and acceptor vesicles, the appropriate lipids in chloroform were put into a glass test tube and dried under a stream of N2. A buffer containing 15 mM Tris-HCl pH 7.5, 1 mM EDTA, 40 mM NaCl, 0.02% NaN3 (assay buffer) was added to the dried lipid. The mixture was vortexed briefly and the lipids were then allowed to hydrate for 20 min on ice. Vesicles were then prepared by bath sonication (Branson 2200) at room temperature for maximum 15 min. Butylated hydroxytoluene was included in all vesicle preparations at a concentration of 0.1%. The lipid transfer assay mixture contained donor vesicles (40 nmol phosphatidylcholine, 7.5 mol % of cardiolipin and 0.25 mol % glycerol tri [1-^14C]-oleate), acceptor vesicles (240 nmol phosphatidylcholine) and 5 mg BSA in a total volume of 675 μl in a 1.5 ml microcentrifuge tube. Test compounds were added dissolved in DMSO (0.13% final concentration). After 5 minutes of pre-incubation at 37° C., the reaction was started by the addition of MTP in 100 μl dialysis buffer. The reaction was stopped by the addition of 400 μl DEAE-52 cellulose pre-equilibrated in 15 mM Tris-HCI pH 7.5, 1 mM EDTA, 0.02% NaN3 (1:1, vol/vol). The mixture was agitated for 4 min and centrifuged for 2 min at maximum speed in an Eppendorf centrifuge (4° C.) to pellet the DEAE-52-bound donor vesicles. An aliquot of the supernatant containing the acceptor liposomes was counted and the [^14C]-counts were used to calculate the percent triglyceride transfer from donor to acceptor vesicles. Resulting IC50 values are enumerated in Table C.1.

[1] = Plasma levels in a clinical trial on human volunteers; type: in vivo; details: for share of the total AUC, compounds 1, 2 and 3 together: one value for the three compounds combined
Text: Plasma levels of compounds 1, 2 and 3 and of compound A have been measured in a clinical trial on human volunteers.

[2] = human volunteers, single 200 mg dose administration of compound A

IC50 (HepG2 cells; Homo sapiens, HepG2, 24 h) | IC50 (Dog MTP) | clearance compared with compound A ([1]; human volunteers) | share of the total AUC, compounds 1, 2 and 3 together [1, 2] | IC50 (HepG2 cells) | share of the total AUC (Area Under the Curve) [1, 2] | metabolisation on passing the liver (first-pass) ([1]; human, in vivo) | SMILES
61 nM | 6.2 nM | slower than clearance of compound A | 92% |  |  |  | CCC(C)n1ncn(-c2ccc(N3CCN(c4ccc(OC[C@@H]5CO[C@@](CS(=O)(=O)c6nncn6C)(c6ccc(Cl)cc6)O5)cc4)CC3)cc2)c1=O (relative stereo) [Compound 1, [2S-[2α,4α(S*)]]-4-[4-[4-[4-[[2-(4-chloropheny)-2-[[(4-methyl-4H-1,2,4-triazol-3-yl)sulfonyl]methyl]-1,3-dioxlan-4-yl]methoxy]phenyl]-1-piperazinyl]phenyl]-2,4-dihydro-2-(1-methylpropyl)-3H-1,2,4-triazol-3-one]
 | 118 nM | slower than clearance of compound A | 92% | 930 nM |  |  | CCC(C)n1ncn(-c2ccc(N3CCN(c4ccc(OCC5COC(C[S+]([O-])c6nncn6C)(c6ccc(Cl)cc6)O5)cc4)CC3)cc2)c1=O (single isomer, unassigned) [Compound 2]
 | 11 nM | slower than clearance of compound A | 92% | 94 nM |  |  | CCC(C)n1ncn(-c2ccc(N3CCN(c4ccc(OCC5COC(C[S+]([O-])c6nncn6C)(c6ccc(Cl)cc6)O5)cc4)CC3)cc2)c1=O (single isomer, unassigned) [Compound 3, [2S-[2α(B),4α(S*)]]-4-[4-[4-[4-[[2-(4-chlorophenyl)-2-[[(4-methyl-4H-1,2,4-traizol-3yl]sulfinyl]methyl]-1,3-dioxolan-4-yl]methoxy]phenyl]-1-piperazinyl]Phenyl-2,4-dihydro-2-(1-methylpropyl)-3H-1,2,4-traizol-3-one]
25 nM | 7.6 nM |  |  |  | 8% | extensive metabolisation | CC[C@@H](C)n1ncn(-c2ccc(N3CCN(c4ccc(OC[C@@H]5CO[C@@](CSc6nncn6C)(c6ccc(Cl)cc6)O5)cc4)CC3)cc2)c1=O [compound A, (−)-[2S-[2α,4α(S*)]]-4-[4-[4-[4-[[-2-(4-chlorophenyl)-2-[[(4-methyl-4H-1,2,4-triazol-3-yl)thio]methyl]-1,3-dioxolan-4-yl]methoxy]phenyl]-1-piperazinyl]phenyl]-2,4-dihydro-2-(1-methylpropyl)-3H-1,2,4-triazol-3-one, reference compound]
